For test [1], the system named is Staphylococcus aureus S13E. The experiment in a line: standard agar-dilution assay, MIC. In kind it is cell-based. The method, then:
(§1) The MIC's in Table III were determined by standard agar-dilutionassays. The MIC's in Table IV were obtained using a conventional broth-dilution microtiter test.

The subject of the next test is Streptococcus Group 9960. Put plainly: standard agar-dilution assay, MIC. In kind it is cell-based. Here is the method:
as §1

Test [2] concerns Staphylococcus epidermidis EPI1. The experiment in a line: standard agar-dilution assay, MIC. Format: cell-based. Here is the method:
as §1

In test [3] the test system is Staphylococcus epidermidis EPI2. The experiment in a line: standard agar-dilution assay, MIC. Format: cell-based. The method, then:
as §1

Test [4] relates to Streptococcus pyogenes C203. Put plainly: standard agar-dilution assay, MIC. In kind it is cell-based. The method, then: as §1
Test [5] deals with Streptococcus Group D X66. Put plainly: standard agar-dilution assay, MIC. In kind it is cell-based. Here is the method: as §1
The test system of test [6] is Staphylococcus aureus X1.1. Put plainly: standard agar-dilution assay, MIC. Format: cell-based. Here is the method:
as §1

The subject of test [7] is Streptococcus pneumoniae Park I. The experiment in a line: standard agar-dilution assay, MIC. Format: cell-based. The method, then:
as §1

Test [8] deals with Pasteurella multocida 17E. Put plainly: conventional broth-dilution microtiter test, MIC. In kind it is cell-based. To be noted: bovine isolate. Here is the method: as §1
The next test has as its system Mycoplasma synoviae. Put plainly: conventional broth-dilution microtiter test, MIC. In kind it is cell-based. Here is the method:
as §1

For another test, the system named is Mycoplasma hyorhinis. Put plainly: conventional broth-dilution microtiter test, MIC. In kind it is cell-based. Here is the method: as §1
In test [9] the test system is Pasteurella multocida 60A. Put plainly: conventional broth-dilution microtiter test, MIC. In kind it is cell-based. To be noted: avian isolate. Here is the method:
as §1

The next test has as its system Mycoplasma gallisepticum. Put plainly: conventional broth-dilution microtiter test, MIC. Format: cell-based. Here is the method: as §1
The test system of the next test is Streptococcus sp. 80. Put plainly: conventional broth-dilution microtiter test, MIC. In kind it is cell-based. The method, then: as §1
For a further test, the system named is Staphylococcus aureus. The experiment in a line: conventional broth-dilution microtiter test, MIC. Format: cell-based. Here is the method: as §1
Test [10] concerns Staphylococcus aureus X400. Put plainly: standard agar-dilution assay, MIC. Format: cell-based. Conditions: Staphylococcus aureus X400, methicillin resistant strain. Here is the method: as §1
^c Methicillinresistant-strain

The test system of test [11] is Staphylococcus aureus V41. Put plainly: standard agar-dilution assay, MIC. In kind it is cell-based. Conditions: Staphylococcus aureus V41, penicillin resistant strain. The method, then: as §1
^b Penicillinresistant strain

Test [12] deals with Streptococcus pyogenes C203. Put plainly: experimental bacterial infection in mice, ED50. In kind it is in vivo. To be noted: C203, po, read-out: ED50 (effective dose to protect 50% of the test animals). The method, then: The ester derivatives of this invention have shown in vivo antimicrobial activity against experimental bacterial infections caused by gram-positivebacteria. When two doses of test compound were administered to mice with experimental infections, the activity observed was measured as an ED50 value [effective dose in mg/kg to protect 50% of the test animals: see Warren Wick, et al., J. Bacteriol. 81, 233-235 (1961)].
^a mg/kg × 2; doses given 1 and 5 hours postinfection

Structures are written as SMILES.

On to `CCC(=O)OCC1C=C(C)C=CC(=O)C(C)CC(CC=O)C(OC2OC(C)C(OC3CC(C)(O)C(OC(=O)CC)C(C)O3)C(N(C)C)C2OC(C)=O)C(C)C(O)CC(=O)OC1CC` (centres unmarked) [Compound 3, 2'-O-Acetyl-23,4"-Di-O-Propionyl-DMT], for which the “MIC (minimal inhibitory concentration)” value in [1] is given as 0.5; against Streptococcus Group 9960, 1; in [2] it was 0.5; in test [3] it was 1; in [4], 0.25; in [5] it was 1. Also, the “MIC (minimal inhibitory concentration)” value was 0.5 in test [6]; 0.125 in test [7]; 12.5 in test [8]; 0.78 in the test on Mycoplasma synoviae; 0.39 with Mycoplasma hyorhinis; 12.5 in test [9]. Moreover, the “MIC (minimal inhibitory concentration)” value in the test with Mycoplasma gallisepticum was 0.097; against Streptococcus sp. 80, 0.78; in the test with Staphylococcus aureus, 0.78; in [10], 1; in [11], 1.
One may read the ED50 as the midpoint of the dose-response relation. With `CCC1OC(=O)CC(O)C(C)C(OC2OC(C)C(OC3CC(C)(O)C(OC(=O)Cc4ccccc4)C(C)O3)C(N(C)C)C2OC(C)=O)C(CC=O)CC(C)C(=O)C=CC(C)=CC1COC(=O)Cc1ccccc1` (centres unmarked) [Compound 5, 2'-O-Acetyl-23,4"-Di-O-Phenylacetyl-DMT], the “MIC (minimal inhibitory concentration)” value in test [1] came to 1; against Streptococcus Group 9960, 2; in test [2], 1; in test [3] it was 2; in test [5], 2; in test [6] it was 1. In addition, the “MIC (minimal inhibitory concentration)” value in [8] is given as greater than 50; in the test with Mycoplasma synoviae, 12.5; in the test on Mycoplasma hyorhinis it was 6.25; in test [9], greater than 50; against Mycoplasma gallisepticum, 1.56; with Streptococcus sp. 80, 1.56. The “MIC (minimal inhibitory concentration)” value with Staphylococcus aureus is recorded as 50; in test [10], 2; in [11], 1. Further, in [12], the ED50 was greater than 144 mg/kg.
In the case of `CCC1OC(=O)CC(O)C(C)C(OC2OC(C)C(OC3CC(C)(O)C(OC(=O)COc4ccccc4)C(C)O3)C(N(C)C)C2OC(C)=O)C(CC=O)CC(C)C(=O)C=CC(C)=CC1COC(=O)COc1ccccc1` (centres unmarked) [Compound 7, 2'-O-Acetyl-4",23-Di-O-Phenoxyacetyl-DMT], the “MIC (minimal inhibitory concentration)” value in test [1] is recorded as 32; in the test on Streptococcus Group 9960 it was 16; in [2] it was 32; in [3], 128; in test [4], 8; in test [5] it was 32. In addition, the “MIC (minimal inhibitory concentration)” value is recorded as 32 in [6]; 1 in [7]; greater than 50 in test [8]; 0.78 in the test with Mycoplasma hyorhinis; greater than 50 in [9]; 0.78 in the test on Mycoplasma gallisepticum. In addition, the “MIC (minimal inhibitory concentration)” value in the test with Streptococcus sp. 80 stood at 0.78; against Staphylococcus aureus, 12.5; in test [10], 64; in [11], 64.
Consider `CCC1OC(=O)CC(OC(=O)COc2ccccc2)C(C)C(OC2OC(C)C(OC3CC(C)(O)C(O)C(C)O3)C(N(C)C)C2OC(C)=O)C(CC=O)CC(C)C(=O)C=CC(C)=CC1COC(=O)COc1ccccc1` (centres unmarked) [Compound 8, 2'-O-Acetyl-3,23-Di-O-Phenoxyacetyl-DMT], for which the “MIC (minimal inhibitory concentration)” value is on record as 0.5 in test [1]; 0.25 against Streptococcus Group 9960; 1 in test [2]; 1 in test [3]; 0.125 in test [4]; 0.5 in test [5]. Moreover, the “MIC (minimal inhibitory concentration)” value is reported as 0.5 in [6], 0.125 in test [7], 1 in test [10] and 1 in test [11].
Consider `CCC(=O)OCC1C=C(C)C=CC(=O)C(C)CC(CC=O)C(OC2OC(C)C(OC3CC(C)(O)C(OC(=O)CC)C(C)O3)C(N(C)C)C2OC(C)=O)C(C)C(OC(=O)CC)CC(=O)OC1CC` (centres unmarked) [Compound 9, 2'-O-Acetyl-3,23,4"-Tri-O-Propionyl-DMT], for which the “MIC (minimal inhibitory concentration)” value in [1] was found to be 1; in the test on Streptococcus Group 9960, 1; in test [2], 1; in test [3] it was 2; in [4], 0.5; in [5], 1. Also, the “MIC (minimal inhibitory concentration)” value in [6] is reported as 1; in [7], 0.25; in test [8], greater than 50; with Mycoplasma synoviae, 0.78; against Mycoplasma hyorhinis it was 0.78; in [9] it was greater than 50. Besides, the “MIC (minimal inhibitory concentration)” value with Mycoplasma gallisepticum was 0.78; against Streptococcus sp. 80, 1.56; in the test with Staphylococcus aureus, 1.56; in test [10], 1; in [11], 1.
As to `CCC1OC(=O)CC(O)C(C)C(OC2OC(C)C(OC3CC(C)(O)C(OC(=O)Cc4ccccc4)C(C)O3)C(N(C)C)C2OC(C)=O)C(CC=O)CC(C)C(=O)C=CC(C)=CC1C` (centres unmarked) [Compound 20, 2'-O-Acetyl-4"-O-Phenylacetyl-DMOT], the “MIC (minimal inhibitory concentration)” value is greater than 128 in test [1]; greater than 128 against Streptococcus Group 9960; greater than 128 in test [2]; greater than 128 in test [3]; 128 in [4]; greater than 128 in [5]. Also, the “MIC (minimal inhibitory concentration)” value was greater than 128 in test [6]; 32 in [7]; 50 in test [8]; 50 against Mycoplasma synoviae; 50 with Mycoplasma hyorhinis; 50 in test [9]. Besides, the “MIC (minimal inhibitory concentration)” value in the test with Mycoplasma gallisepticum is listed as 6.25; in the test on Streptococcus sp. 80 it was 50; in the test on Staphylococcus aureus, 25; in [10], greater than 128; in [11] it was greater than 128.
`CCC1OC(=O)CC(O)C(C)C(OC2OC(C)C(OC3CC(C)(O)C(OC(=O)Cc4ccccc4)C(C)O3)C(N(C)C)C2O)C(CC=O)CC(C)C(=O)C=CC(C)=CC1C` (centres unmarked) [Compound 21, 4"-O-Phenylacetyl-DMOT]: the “MIC (minimal inhibitory concentration)” value in test [1] is on record as 8; in the test on Streptococcus Group 9960, 16; in [2], 8; in test [3], 16; in test [4] it was 4; in test [5] it was 8. The “MIC (minimal inhibitory concentration)” value in test [6] is on record as 8; in [7] it was 0.5; in test [8], greater than 50; against Mycoplasma synoviae, 6.25; with Mycoplasma hyorhinis, 3.12; in test [9] it was 50. Also, the “MIC (minimal inhibitory concentration)” value was 0.78 against Mycoplasma gallisepticum; 6.25 in the test with Streptococcus sp. 80; 12.5 against Staphylococcus aureus; 16 in test [10]; 16 in [11].
